This is an account of results in ChEMBL document CHEMBL6083254, “Optimization of B-Ring-Functionalized Antimalarial Tambjamines and Prodiginines” (J Med Chem, 2024).

Series [1] relates to HepG2. The series can be described thus: Cytotoxicity against human HepG2 cells assessed as cell viability incubated for 72 hrs by MTT assay. It counts as toxicity, cell-based. The following applies: hepg2.
Series [2] deals with Plasmodium yoelii. The series can be described thus: Antiplasmodial activity against asexual erythrocytic stage of Plasmodium yoelii infected in female CFI mouse model assessed as reduction in parasitemia at 25 mg/kg, po administered once daily for 4 days and measured on day 5 by Giemsa staining based microscopic analysis relative to control. Type of series: functional. Details: scale not given: the % may be the effect or the level left. Conditions: time 5 day.

Series [3] can be described thus: in vitro. The following applies: human.
Description: Selectivity index, ratio of IC50 for cytotoxicity against human HepG2 cells assessed as cell viability to IC50 for antiplasmodial activity against asexual erythrocytic stage of Plasmodium falciparum D6 assessed as inhibition of parasitic growth incubated
The subject of series [4] is Plasmodium falciparum. Put plainly: microbe, parasite or virus in culture. The following applies: D6, 72 h.
Series [5] concerns Plasmodium falciparum. Put plainly: microbe, parasite or virus in culture. The following applies: Dd2, 72 h.
Series [6] concerns Plasmodium falciparum. Put plainly: microbe, parasite or virus in culture. The following applies: Tm90-C2B, 72 h.
Series [7] can be described thus: Metabolic stability in human liver microsomes assessed as half life measured upto 60 mins LC-MS analysis.
Series [8] is described as follows: Metabolic stability in mouse liver microsomes assessed as half life measured upto 60 mins LC-MS analysis.
Series [9] can be described thus: Metabolic stability in human liver microsomes assessed as intrinsic clearance measured upto 60 mins LC-MS analysis.
The nature of series [10]: Metabolic stability in mouse liver microsomes assessed as intrinsic clearance measured upto 60 mins LC-MS analysis.
Series [11] in a line: Aqueous solubility of compound in PBS buffer at pH 7.4 incubated for 90 mins by UV-vis spectroscopic analysis. Conditions: pH 7.4, 1.5 h.

With `CCCCCCCCCCCCN/C=C1\N=C(c2ccc[nH]2)C=C1OC(C)C.Cl`, the IC50 in series [1] stood at 3070 nM; in [4], 29.7 nM; in series [5] it was 37.5 nM; in series [6], 37.2 nM. In series [2], the Activity was 0%. Further, in [3], the selectivity ratio was determined as 103.

Take `CCCCCCCCCCCCN/C=C1\N=C(c2ccc[nH]2)C=C1OCc1ccc(Cl)cc1`: the values for the 50% inhibitory concentration (IC50) in series [4], in series [5] and in series [6] were 410 nM, 340 nM and 305 nM, respectively.

Turning to `CCCCCCCCCCCc1ccc(/C=C2\N=C(c3ccc[nH]3)C=C2OCc2ccc(OC(F)(F)F)cc2)[nH]1`, the IC50 in series [4], in series [5] and in [6] was over 2500 nM in each case.

`CC(C)CN/C=C1\N=C(c2ccc[nH]2)C=C1OCc1ccc(OC(F)(F)F)cc1`: the figures for the half-maximal inhibitory concentration (IC50) in series [5] and in [6] were 205 nM and 335 nM, respectively.

For the molecule `C1=C(Oc2ccccc2)/C(=C/NC23CC4CC(CC(C4)C2)C3)N=C1c1ccc[nH]1.Cl`, the half-inhibitory concentration (IC50) in [1] is 8570 nM; in series [4], 25.9 nM; in series [5] it was 22 nM; in series [6], 17.7 nM. Besides, the Activity in [2] is on record as over 99%. In addition, the values for the half-life at 1 h in series [7] and in [8] were 34.7 min and over 60 min, respectively. In addition, the microsomal CLint at 1 h worked out at 40 µL/min/mg in [9] and 18.9 µL/min/mg in series [10]. The same molecule showed a solubility in series [11] of 7.88 µM. In series [3], the selectivity ratio is 331.

As for `Cl.FC(F)(F)Oc1ccc(OC2=CC(c3ccc[nH]3)=N/C2=C\NC23CC4CC(CC(C4)C2)C3)cc1`, the IC50 in [1] stood at 28200 nM; in series [4] it was 193 nM; in series [5], 242 nM; in series [6], 204 nM. In [2], the Activity was 83%. Further, the selectivity ratio in series [3] was 146.

For the molecule `CCCCCCCCCCCCN/C=C1\N=C(c2ccc[nH]2)C=C1OCCC.Cl`, the 50% inhibitory concentration (IC50) is 4440 nM in [1], 32.8 nM in [4], 44.2 nM in [5] and 39 nM in [6]. For the same molecule, the Activity in [2] came out at 16.4%. Moreover, in series [3], the selectivity ratio was 135.

In the case of `CCCCCCCCCCCCN/C=C1\N=C(c2ccc[nH]2)C=C1Oc1ccc(Cl)cc1`, the IC50 in [4], in series [5] and in series [6] was over 2500 nM in each case.

Consider `Cl.Clc1ccc(OC2=CC(c3ccc[nH]3)=N/C2=C\NC23CC4CC(CC(C4)C2)C3)cc1`, for which the Activity in [2] turned out to be 58%. For the same molecule, the half-life at 1 h in series [7] and in [8] was over 60 min in each case. The values for the intrinsic metabolic clearance (microsomal CLint) at 1 h in [9] and in [10] were 6.72 µL/min/mg and 2.1 µL/min/mg, respectively. Also, the selectivity ratio in series [3] worked out at 275. The concentration for half-maximal inhibition (IC50) in series [4] came out at 52.8 nM; in [5], 22 nM; in [6] it was 28.3 nM.

Consider `COC1=CC(c2ccc[nH]2)=N/C1=C\NCC(C)C`, for which the IC50 in [1] turned out to be 19100 nM; in series [4] it was 112 nM; in series [5], 92.8 nM; in [6] it was 103 nM. For the same molecule, the Activity in [2] came out at 18.2%. Besides, the selectivity ratio in [3] was found to be 170.

Consider `CC(C)CN/C=C1\N=C(c2ccc[nH]2)C=C1OC(C)C.Cl`, for which the half-maximal inhibitory concentration (IC50) in [1] is 7420 nM; in [5] it was 37.7 nM; in [6] it was 34.2 nM. The Activity in [2] was determined as 0%. Besides, the selectivity ratio in series [3] was 201.

Consider `OC(c1cc(C(F)(F)F)nc2c(C(F)(F)F)cccc12)C1CCCCN1` (stereo unspecified) [MEFLOQUINE], for which the concentration for half-maximal inhibition (IC50) in [1] came out at 13700 nM.

For the molecule `CCOC1=CC(c2ccc[nH]2)=N/C1=C\NCC(C)C.Cl`, the concentration for half-maximal inhibition (IC50) was determined as 4620 nM in series [1], 30 nM in series [4], 46.7 nM in [5] and 41.6 nM in [6]. The Activity in series [2] worked out at 0%. In addition, the selectivity ratio in series [3] came out at 154.

On to `CC(C)CN/C=C1\N=C(c2ccc[nH]2)C=C1Oc1ccc(OC(F)(F)F)cc1`, for which the IC50 in series [4], in series [5] and in series [6] was over 2500 nM in each case.

On to `Clc1ccc(COC2=CC(c3ccc[nH]3)=N/C2=C\NC2CCCCCC2)cc1`, for which the IC50 in [1] stood at 8480 nM; in [4], 121 nM; in [5], 79.9 nM; in series [6] it was 97.8 nM. The selectivity ratio in series [3] was 70.

Consider `CC(C)CN/C=C1\N=C(c2ccc[nH]2)C=C1Oc1ccc(Cl)cc1`, for which the IC50 in series [4], in series [5] and in series [6] was over 2500 nM each time.

Regarding `CC(C)CN/C=C1\N=C(c2ccc[nH]2)C=C1OCc1ccc(Cl)cc1`, the concentration for half-maximal inhibition (IC50) in [1] amounted to 6960 nM; in series [4], 89.7 nM; in [5], 62.3 nM; in series [6], 68.8 nM. In series [3], the selectivity ratio stood at 78.

Take `CCCCCCCCCCCCN/C=C1\N=C(c2ccc[nH]2)C=C1OCC.Cl`: the concentration for half-maximal inhibition (IC50) in series [1] is 4350 nM; in series [4], 11.1 nM; in series [5], 9.68 nM; in series [6], 12.7 nM. The Activity in [2] is reported as 0%. The selectivity ratio in [3] was determined as 391.

Regarding `CCCCCCCCCCCc1ccc(/C=C2\N=C(c3ccc[nH]3)C=C2Oc2ccc(Cl)cc2)[nH]1`, the figures for the half-maximal inhibitory concentration (IC50) in series [4], in series [5] and in [6] were 1320 nM, 1400 nM and 2300 nM, respectively.

For `CCCCCCCCCCCc1ccc(/C=C2\N=C(c3ccc[nH]3)C=C2OCc2ccc(Cl)cc2)[nH]1`, the 50% inhibitory concentration (IC50) in series [5] stood at 939 nM; in [6], 1850 nM.

On to `CCOC1=CC(c2ccc[nH]2)=N/C1=C\NC1CCCCCC1.Cl`, for which the concentration for half-maximal inhibition (IC50) was 2260 nM in series [1], 7.33 nM in series [4], 5.27 nM in series [5] and 4.93 nM in series [6]. Also, in series [2], the Activity came to 8.5%. The half-life at 1 h in series [7] was 35.7 min; in series [8], over 60 min. Besides, the intrinsic clearance (microsomal CLint) at 1 h stood at 38.8 µL/min/mg in series [9] and 14.4 µL/min/mg in [10]. The molecule also displayed a solubility in [11] of 178 µM.

Regarding `FC(F)(F)Oc1ccc(OC2=CC(c3ccc[nH]3)=N/C2=C\NC2CCCCCC2)cc1`, the 50% inhibitory concentration (IC50) in [4] is 1190 nM; in series [5], over 2500 nM; in [6] it was 1690 nM.

Regarding `CCCCCCCCCCCCN/C=C1\N=C(c2ccc[nH]2)C=C1OC`, the 50% inhibitory concentration (IC50) in series [1] was 6100 nM; in series [4], 65.9 nM; in series [5], 69.9 nM; in series [6] it was 96.9 nM. In series [3], the selectivity ratio worked out at 93.

On to `CCCOC1=CC(c2ccc[nH]2)=N/C1=C\NCC(C)C.Cl`, for which the half-maximal inhibitory concentration (IC50) in series [1] is 7630 nM; in series [4], 20.9 nM; in series [5], 15.5 nM; in [6], 23.1 nM. In addition, in series [2], the Activity amounted to 75.4%. The selectivity ratio in [3] is 365.

With `CC(C)CN/C=C1\N=C(c2ccc[nH]2)C=C1OCc1ccccc1.Cl`, the IC50 in series [1] stood at 8860 nM; in [4], 48.7 nM; in series [5], 58 nM; in series [6], 52.1 nM. In [2], the Activity stood at 0%. Further, the selectivity ratio in series [3] is 182.

Consider `CCCOC1=CC(c2ccc[nH]2)=N/C1=C\NC1CCCCCC1.Cl`, for which the figures for the half-maximal inhibitory concentration (IC50) in series [1], in series [5] and in series [6] were 2890 nM, 0.632 nM and 0.348 nM, respectively. Also, the Activity in series [2] was found to be 75.5%. In addition, the half-life at 1 h came out at 35.2 min in [7] and 53.2 min in series [8]. The intrinsic clearance (microsomal CLint) at 1 h is 39.4 µL/min/mg in [9] and 26 µL/min/mg in series [10]. Further, in [11], the solubility came out at 77.7 µM. In addition, in series [3], the selectivity ratio came out at 7960.

Take `CC(C)CN/C=C1\N=C(c2ccc[nH]2)C=C1Oc1ccccc1`: the IC50 is 1690 nM in series [5] and 884 nM in [6].

Turning to `CCCCCCCCCCCCN/C=C1\N=C(c2ccc[nH]2)C=C1OCc1ccccc1.Cl`, the half-maximal inhibitory concentration (IC50) in series [1] was determined as 7740 nM; in [5] it was 60.2 nM; in series [6] it was 54.6 nM. In addition, in series [2], the Activity is reported as 0%. Further, the selectivity ratio in series [3] is 144.

Take `Cl.FC(F)(F)Oc1ccc(COC2=CC(c3ccc[nH]3)=N/C2=C\NC2CCCCCC2)cc1`: the IC50 was determined as 5720 nM in series [1], 49.5 nM in series [4], 38.7 nM in series [5] and 26.3 nM in series [6]. Besides, in series [2], the Activity was 72.3%. Moreover, the selectivity ratio in series [3] was found to be 116.

For `CCCCCCCCCCCc1ccc(/C=C2\N=C(c3ccc[nH]3)C=C2Oc2ccc(OC(F)(F)F)cc2)[nH]1`, the IC50 in series [4], in [5] and in [6] was over 2500 nM each time.

Regarding `CCCCCCCCCCCCN/C=C1\N=C(c2ccc[nH]2)C=C1Oc1ccccc1`, the half-inhibitory concentration (IC50) in [4], in series [5] and in [6] was over 2500 nM throughout.

On to `Clc1ccc(OC2=CC(c3ccc[nH]3)=N/C2=C\NC2CCCCCC2)cc1`, for which the concentration for half-maximal inhibition (IC50) in [4] was 517 nM; in series [5] it was 681 nM; in [6] it was 561 nM.

For the molecule `CCCCCCCCCCCCN/C=C1\N=C(c2ccc[nH]2)C=C1Oc1ccc(OC(F)(F)F)cc1`, the IC50 in series [4], in [5] and in series [6] was over 2500 nM throughout.

On to `C1=C(Oc2ccccc2)/C(=C/NC2CCCCCC2)N=C1c1ccc[nH]1`, for which the IC50 in [4] was determined as 354 nM; in [5] it was 317 nM; in [6], 276 nM.

Consider `Cl.Clc1ccc(COC2=CC(c3ccc[nH]3)=N/C2=C\NC23CC4CC(CC(C4)C2)C3)cc1`, for which the half-inhibitory concentration (IC50) in [1] is 2250 nM; in series [4], 14.1 nM; in [5] it was 8.56 nM; in series [6], 11.4 nM. Besides, the Activity in series [2] is reported as 40%. The selectivity ratio in [3] worked out at 160.

As for `CCCCCCCCCCCCN/C=C1\N=C(c2ccc[nH]2)C=C1OCc1ccc(OC(F)(F)F)cc1`, the 50% inhibitory concentration (IC50) in [4] came to 413 nM; in [5] it was 350 nM; in [6] it was 320 nM.
